# Results as given in patent publication US20200131473A1, “METHOD OF GENERATING 2 CELL-LIKE STEM CELLS” (IFOM FONDAZIONE ISTITUTO FIRC DI ONCOLOGIA MOLECOLARE, priority 2017, published 2020).
# What was measured:
# [1] = test system: pZscan4-Emerald ESCs; test: FACS for Emerald-GFP and CASPASE-3 (apoptosis); type: cell-based, mouse; details: mostly at high concentration
# Description: ESCs were fixed and permeabilized using Cytoperm/Cytofix kit (BD Biosciences), and subsequently stained for one hour at room temperature with Alexa Fluor® 647 anti-H2AX-Phosphorylated (Ser139) antibody (Biolegend) or P-CHK1-PE conjugated antibody (cell signaling 12268). Cells were washed and acquired on a FACS Calibur instrument or Attune NxT (Thermo Fisher Scientific). For Emerald-GFP acquisition, cells were trypsinized, collected and subsequently acquired without fixation. Cell cycle profiles were acquired after incubation with DAPI (4′,6-diamidino-2-phenylindole) overnight. For Caspase3 FACS analysis after fixation and permeabilization, Cleaved Caspase3 antibody were used for one hr at RT followed by washes and one hr incubation in donkey anti rabbit secondary antibody. […]
# [2] = test system: C57BL/6N morulae; test: Viability of APH-treated embryos; type: cell-based, mouse; details: APH 1.5 μM in KSOM for 4 hrs
# [3] = test system: morula-stage embryos; test: Mouse chimaera assay; type: in vivo; details: APH-treated mCherry ESCs injected into morula, 24 hrs post injection; 7 out of 35
# Procedure: Briefly, morula stage embryos were bought from Charles River laboratories. They were thawed few hours prior to injection and about five to eight ESC were injected into the perivitelline space of high quality morula-stage embryos using laser-assisted technique and glass micro-capillary tubes. Finally, embryos were cultured for 24 hours at 37 C, 5% CO2 to allow the blastocysts development prior to the microscopic analysis.
# For ETAA-1 inducible cells, 8-cell morulae were obtained from superovulated C57BL/6 prepubescent females from Janvier Labs. Ten ESCs were injected into each morula after piercing their zona pellucida with beveled microinjection needle. Embryos were kept in M2 medium during the injection and afterwards in KSOM medium at 37° C. under 5% CO2. Morulae were either cultured for 48 hrs to study ESC contribution at late blastocyst stage (E4.5), or transferred to pseudopregnant females and later dissected at E7.5. Chimerism and ESC contribution to the various embryonic layers were assessed by emission of mCherry fluorescence signal.
# For the APH-treated ESCs, frozen morula-stage embryos were purchased from Charles River and Janvier laboratories. Embryos were thawed 2 hrs prior to injection and 4 to 8 ESCs were transferred into the perivitelline space by laser-assisted microinjection method. […]
compound,measurement,setting,value
"C[C@@]1(CO)[C@H](O)CC[C@@]2(C)[C@H]1CC[C@H]1C[C@@H]3C[C@@]12CC[C@]3(O)CO [APH, aphidicolin]",cell apoptosis (CASPASE-3),[1],mild cell apoptosis
same,viability of the embryos,[2],no effect on the viability of the embryos
same,chimeric embryos with contribution to the trophectoderm layer of the blastocysts,[3],20%
